Where “and” joins values, the source holds several entries; their conditions need not be identical. Identical values can stand only once. Square brackets hold non-standard residues; d marks the D form. * marks the point of attachment. Myristoyl = CCCCCCCCCCCCCC(=O)*; Nle = CCCC[C@H](N)C(=O)O

Test [1] relates to Mice/Balb/c, hind limb ischemia model. Description: Mouse hind limb ischemia/angiogenesis model. Format: in vivo. The text has this: The object of this study was to determine whether administration of the test items, peptides AB-017 (SEQ ID NO: 12) and 725-106 (positive control, SEQ ID NO: 2) can enhance angiogenesis, subsequently inducing clinical and motor function improvement in a hind limb ischemia model. The principle of the test is based on changes in perfusion rate, clinical signs and histological parameters (necrosis) following administration of the test compounds.
Each tested group included 4-7 mice per group. Intraperitoneal (i.p) injection is the preferred route of administration of the test items in this model and DMSO/PEG is used as vehicle to prepare the test item solution.
Tested peptides were dissolved in 100% DMSO. Thereafter Polyethylene glycol (PEG) 400 is added to the solution. Sterile water was used to dilute to a final concentration of 0.5% DMSO/10% PEG 400/H2O to result 2 mg/ml. The solution is prepared and divided into marked aliquots and stored at −70° C.
Species/Strain: Mice/Balb/c male˜8 weeks
Animals were housed under standard laboratory conditions, air conditioned and filtered (HEPA F6/6) with adequate fresh air supply (31 air changes/hour). Animals were kept in a climate controlled environment. Temperatures range is between 20-24° C. and RH is between 30-70% with 12 hours light and 12 hours dark cycle. Animals were housed in polyethylene cages (7/cage) measuring 35×30×15 cm, with stainless steel top grill facilitating pelleted food and drinking water in plastic bottle; bedding: steam sterilized clean paddy husk. Bedding material is changed along with the cage at least twice a week. Diet: Animals are fed ad libitum a commercial rodent diet (Teklad Certified Global 18% Protein Diet cat #: 106S8216). Animals have free access to drinking water obtained from the municipality supply. Surgical Procedure: Anesthesia: Isoflurane 1.5-3% in a mixture of O2/N2O, under spontaneous respiration. All four limbs of the animal were taped down in order to facilitate the animal for surgery. Both hind legs of the animals are shaved and disinfected. On the operated leg, the right leg in all animals, an incision was made from the inguinal area to the proximity of the knee. The femoral vein/artery/nerve were exposed. The artery is dissected free from the vein, nerve and surrounding fascia. Distal to its bifurcation with the profound femoral artery, using 6-0 silk suture the artery is ligated twice, and thereafter transected between these two points (see prox-A-group model appendix I). The surgical wound is closed with 6-0 silk and the mouse is returned to its cage. The left leg is untreated control in all animals. Exclusion criteria: Only mice, whose mean flux measurement post surgery is […] and ≦50% of the pre surgical measurement, are incorporated into the study. Mice whose mean flux measurement post surgery out of this range were excluded from the study.
[formula] Drug administration: All animals were dosed by IP administration at a dose volume of 10 ml/kg.
Tests and Evaluation: Body weight: Body weights were measured prior to surgery, prior to each dosing, and prior to necropsy. Blood flow measurement: Using a Laser Doppler apparatus (Perimed PeriScan PIM II System, Technical manual available at test facility) Blood flow was measured (operated leg & control leg) while the legs are in their natural resting position at the following time points: Before surgery (after shaving) & Post surgery (Day 0); Day 1; Day 8; Day 15; Day 22; and Day 29. Each time point for each mouse consists of three measurements. Blood flow was measured, additionally, in first 10 animals at Pre before shaving. […]

In test [2] the test system is C57BL mice, polymicrobial septic mouse model. Description: In-vivo septic shock model (cecum ligation and puncture). The conditions noted are these: 20 mg/Kg s.c. once a day for 5 days; FIG. 5. On the procedure:
The polymicrobial septic mouse model of severe sepsis (Belikoff et al. The Journal of Immunology, 2011, 186: 2444-2453), was induced in wild-type (WT) C57BL mice using cecum ligation and puncture (CLP) approach. In summary, mice were anesthetized, a 1.5-cm, longitudinal incision in the lower right quadrant of the abdomen was performed and the cecum was exposed. The distal two third of the cecum was ligated with 4-0 silk suture and punctured doubly with an 18-gauge needle. The cecum was then replaced into the peritoneal cavity and the incision was closed with surgical staples. After that, the mice were resuscitated with sterile saline injected subcutaneously and allowed free access to food and water after awaking.
Following this procedure, mice were then injected s.c. once a day, for 5 days, with either vehicle or with 20 mg/Kg of GPS-725.017 (SEQ ID NO: 12).

The test system of a further test is mouse aortic rings. The experiment in a line: Aortic ring assay ex-vivo (capillary sprouting from mouse aortic rings in collagen; repeated with VEGF). Type of test: cell-based. Further details: Capillary length 10 μM (10 μM) / Capillary length 20 μM / Capillary length 10 μM: unit not given here. Here is the method:
Thoracic aortas were dissected from 7- to 8-week-old male SABRA mice. The aortas were immediately transferred to Petri dishes containing BIO-MPM-1. The adventitia and small vessels around the aorta were carefully removed under a dissecting microscope, and transverse cuts of 0.75 mm were made. The resulting aortic rings were extensively rinsed and incubated overnight in BIO-MPM-1 containing penicillin-streptomycin. Subsequently, the rings were embedded in 50 μl collagen mix (7 parts collagen, 1 part 10× Eagle minimal essential medium, MEM, and 2 parts 0.15 M sodium bicarbonate) in 96-well plates (Nunc, Rochester, N.Y.). Solidification of the collagen solution was achieved by raising the pH to neutral and the temperature to 37° C. 150 μl BIO-MPM-1 containing penicillin-streptomycin and the tested factors or peptides) was added to the embedded rings, and the plates were incubated at 37° C. in a humidified 10% CO2 atmosphere. Medium containing factors and/or peptides was refreshed at days 4 and 8. After two weeks, the rings were fixed with 4% formaldehyde for 24 hours, followed by staining with crystal violet (0.02%) dissolved in ethanol and extensive washing to remove excessive stain. The effect of factors and peptides was examined in 4 wells (4 rings of mouse aortic rings) per assay. Micrographs of representative rings were taken using a digital camera (Nikon, Tokyo, Japan). Morphometric analysis of sprouting was performed manually using Image-Pro 4.5 software (Media Cybernetics, Silver Spring, Md.) according to Nissanov et al. (Lab Invest. 1995; 73:734-739). Nonstained rings were subjected to paraffin sections and hematoxylin and eosin (H&E) staining.
FIGS. 1A-1C represents aortic ring capillary length and FIGS. 2A-2C aortic ring capillary width. In the table: K-Flu is a Lysine residue coupled with a fluorescein moiety, 4BrPhe is 4-bromo-Phenylalanine, Dod is Dodecanoyl, Dec designates Decanoyl, Oct is Octanoyl, and Hex is Hexanoyl.
The aortic ring assay was repeated in the presence of 10 μM concentration of peptides AB-033 (SEQ ID NO: 13) and AB-034 (SEQ ID NO: 14) together with the pro-angiogenetic protein VEGF.

For the substance “Myr-Gly-Nle-Arg-Pro-Tyr-NH2 (Myristoyl-G[Nle]RPY-NH2; SMILES CCCCCCCCCCCCCC(=O)NCC(=O)N[C@@H](CCCC)C(=O)N[C@@H](CCCNC(=N)N)C(=O)N1CCC[C@H]1C(=O)N[C@@H](Cc1ccc(O)cc1)C(N)=O) [AB-017]”, in test [1] (20 mg/kg IP twice weekly for 4 weeks, vs vehicle control and 725-106), the “perfusion, leg function and leg necrosis (in words)” value is “significant improvement of the ischemic leg”. In addition, the “Functional evaluation at day 15 (individual mouse)” value in test [1] (20 mg/kg IP twice weekly, function score 0 (flexing the toes) to 3 (dragging of foot), one value per mouse, listed as AB-107) is 3.0 (2×) and 2.0 and 0.0 (4×). Besides, the “Hind limb ischemia evaluation at day 15, Average” value in test [1] (20 mg/kg IP twice weekly, group average of ischemic score) stood at 0.7. In addition, the “Hind limb ischemia evaluation at day 15 (individual mouse)” value in test [1] (20 mg/kg IP twice weekly, ischemic score 0 (absence of necrosis) to 4 (total hind-limb loss), one value per mouse, listed as AB-107) was 2.0 (2×) and 0.0 (4×) and 1.0. Also, the “rescue from death in septic-shock model” value in test [2] is given as “rescue mice from death”. Further, the “capillary / vessel formation (in words)” value in the test on mouse aortic rings (aortic ring assay, FIGS. 1A-1C and 2A-2C) was “induce massive capillary formation”. Also, in the test on mouse aortic rings (peptide 10 μM, rings fixed after two weeks), the “Capillary length 10 μM” value is 3,100 and 3,770. In addition, the “Capillary length 20 μM” value in the test on mouse aortic rings (peptide 20 μM, rings fixed after two weeks) was 11,200 and 15,300.

Values taken from patent publication US9873724B2, “Pro-angiogenic peptides and peptide conjugates” (Yissum Research Development Company of the Hebrew …, priority 2013, dated 2018).
